Test results as given in patent US20090118211A1, “Compositions and Methods for Enhancement of Sexual Function” (priority 2005, published 2009).
Values joined by “and” are separate entries in the source; they are usually repeats but may differ in a detail not shown here. Equal values may be shown once. Read-outs that look alike come from different tables or passages of the source.

Columns and labels:
[1] = cited from earlier work; for maximum observed plasma concentration (Cmax): oral administration
premature ejaculation [2] = conditions: cited from earlier work
premature ejaculation [3] = experiment: Retrospective analysis of clomipramine with or without a commercial PDE5 inhibitor taken as needed: ejaculation time; conditions: rated after 8 weeks, one patient per row
erectile dysfunction [4] = experiment: Retrospective analysis of clomipramine with or without a commercial PDE5 inhibitor taken as needed: subjectively rated erection; conditions: after 8 weeks, one patient per row
[5] = test system: SSRI-induced sexual dysfunction; conditions: in vivo; cited from earlier work
erectile dysfunction [6] = conditions: oral administration of 50-100 mg; cited from earlier work

For `CN(C)CCCN1c2ccccc2CCc2ccc(Cl)cc21` [Clomipramine, clomipramine], the “time of peak plasma levels after dosage” value ([1]; much individual variation) is given as 2 to 6 h, the “time required to reach peak plasma concentration, longer than that required by tadalafil” value ([1]; relative to tadalafil) is given as “about 2 hours” and the “time required to reach peak plasma concentration, longer than that required by either vardenafil or sildenafil” value ([1]; relative to vardenafil or sildenafil) is given as 3 h. For the same compound, the “time to climax in premature ejaculators” value (premature ejaculation [2]; 50 mg) was “more than 8 minutes”, the latency to ejaculation (premature ejaculation [2]; 25 milligrams 12 to 24 hours before anticipated sexual activity, from about 1.5 to 2 minutes) was “about 8 minutes” and the “effect alone in men with premature ejaculations who were also impotent” value (premature ejaculation [2]; clomipramine alone) was “ineffective”. For the same compound, the “Ejaculation Time (minutes) after treatment” value (“Ejaculation Time (minutes)” below) (premature ejaculation [3]; Clomipramine 10 mg alone) was 10 min, the “Ejaculation Time (minutes)” value (premature ejaculation [3]; Clomipramine 15 mg alone) was 10 min and 4 min and 20 min and the “Ejaculation Time (minutes)” value (premature ejaculation [3]; Clomipramine 25 mg alone) was 7 minutes (2×) and 20 minutes (2×) and 15 minutes. For the same compound, the “Ejaculation Time (minutes)” value (premature ejaculation [3]; Clomipramine 30 mg alone) was 10 minutes (3×) and 15 minutes (2×) and 8 minutes and 4 minutes (2×) and 5 minutes and 20 minutes and 0.25 minutes and 3 minutes, the “Erection (% satisfaction) after (%)” value (erectile dysfunction [4]; Clomipramine 10 mg alone) was 100% and the “Erection (% satisfaction) after (%)” value (erectile dysfunction [4]; Clomipramine 15 mg alone, NC denotes no complain) was 100%. The “Erection (% satisfaction) after (%)” value (erectile dysfunction [4]; Clomipramine 25 mg alone, NC denotes no complain) was 100%.
In the case of `CN[C@H]1CC[C@@H](c2ccc(Cl)c(Cl)c2)c2ccccc21` [Sertraline, sertraline], the “effect as ejaculation delaying agent” value (premature ejaculation [2]; 4 hours before sex, primary premature ejaculation versus sildenafil-corrected erectile dysfunction) is listed as “effective as ejaculation delaying agent only for patients having primary premature ejaculation”.
For `CCCN(CCC)CCc1cccc2c1CC(=O)N2` [ropinrole], the “effect on sexual dysfunction induced by citalopram, sertraline, paroxetine, fluoxetine and venlafaxine treatment” value [5] is given as “effective”.
For `CCCc1nn(C)c2c(=O)[nH]c(-c3cc(S(=O)(=O)N4CCN(C)CC4)ccc3OCC)nc12` [sildenafil], the “maximum observed plasma concentration (Cmax)” value ([1]; 50-100 mg) is listed as 18 ng/mL, the “subjects studied found to respond well” value (erectile dysfunction [6]) is listed as 82% and the “effect alone for men with premature ejaculation” value (premature ejaculation [2]; PDE5 inhibitor alone) is listed as “ineffective”.
For `CN1CC(=O)N2[C@H](c3ccc4c(c3)OCO4)c3[nH]c4ccccc4c3C[C@@H]2C1=O` [tadalafil], the “Systemic exposure (AUC) versus dose” value ([1]; doses from 2.5 mg to 20 mg) is listed as “increases proportionately”, the “increase in Cmax versus dose” value ([1]; doses from 2.5 mg to 20 mg) is listed as “slightly less than proportional” and the “degree of drug accumulation” value ([1]; once-daily 20 mg dosing) is listed as 1.6 fold. The “time to attain steady-state plasma concentrations” value ([1]; once-daily 20 mg dosing) was at most 5 days and the “maximum observed plasma concentration (Cmax)” value ([1]; 20 mg) was 378 ng/mL.
For `CCCc1nc(C)c2c(=O)[nH]c(-c3cc(S(=O)(=O)N4CCN(CC)CC4)ccc3OCC)nn12` [vardenafil], the “AUC and Cmax versus dose” value ([1]; oral dosing, recommended dose range (5-20 mg)) is given as “increase in almost direct proportion to the dose”.
